What was measured:
A549-ON = A549-ON cell viability / combination index; format: cell-based
From the text: (§1) The combination index or CI means a value acquired through a calculation based on the Combination Index Theorem. From CI value, the interaction between components within a drug having multiple components can be understood. For example, the CI value quantitatively defines synergism (CI<1), additive effect (CI=1), and antagonism (CI>1) among components.
(§2) The expression fraction affected (Fa) means the fraction affected of a component according to Median-Effect Principle. A CI-Fa plot can be used to define the synergism and antagonism relation between different components.
In a preferable embodiment, A549-ON is chosen as the cancer cell model. A549-ON is incubated with DMC, GEM, CHC/DMC, and CHC/GEM respectively to observe cell viability. In Table 3, DMC and GEM encapsulated by CHC has smaller IC50 comparing to those without CHC encapsulation, providing that an anti-cancer component encapsulated by CHC has higher toxic effect to the cells.
In an embodiment, a plurality of CHC/DMC-GEM having different DMC to GEM ratio including 1:1.2, 1:5, 1:12, and 1:25 are respectively incubated with A549-ON to find a component ratio with better synergistic effect. […]

A549 = A549 cell viability / combination index; format: cell-based; details: Homo sapiens
From the text: as §1, §2
In another preferable embodiment, A549 cells, which are selected as cancer cell model, are respectively incubated with DMC, GEM, CHC/DMC, and CHC/GEM. In Table 4, DMC or GEM encapsulated by CHC has smaller IC50 comparing to those without CHC encapsulation, proving that an anti-cancer component encapsulated by CHC has higher toxic effect to the cells.
In an embodiment, a plurality of CHC/DMC-GEM having different DMC to GEM ratios including 1:2.5, 1:5, 1:10, and 1:20 are respectively incubated with A549 to find a drug ratio with better synergistic effect. After calculation, a CI versus Fa plot is shown in FIG. 7 based on the viability of A549 cells. […]

| SMILES | IC50 (A549-ON) | IC50 (A549) |
| --- | --- | --- |
| COc1cc(/C=C/C(O)=C/C(=O)/C=C/c2ccc(O)cc2)ccc1O [DMC, Demethoxycurcumin] | 10 µg/mL | 10.3 µg/mL |
| Nc1ccn([C@@H]2O[C@H](CO)[C@@H](O)C2(F)F)c(=O)n1 [GEM, Gemcitabine] | 117 µg/mL | 117 µg/mL |
